Experimental data reported in the RepoRT retention time repository (doi:10.1021/acs.analchem.2c02893).

Experiment: RP, Thermo Scientific Acclaim RSLC 120 C18, 100 × 2.1 mm, 2.2 µm, 30 °C, 0.2 mL/min, estimated dead time 1.1 min; A: 90% water + 10% methanol + 0.01% formic acid + 5 mM ammonium formate, pH 3.61; B: methanol + 0.01% formic acid + 5 mM ammonium formate, pH 3.61; gradient (min/%B) 0/1 1/1 2/39 13/99.9 15/99.9 15.1/1 20.1/1
Conditions: stereoisomer not certain

Row | Compound | LC retention time [min]
1 | CN1C(=O)CN=C(c2ccccc2F)c2cc(N)ccc21 [Flunitrazepam- 7-Amino] | 5.41
2 | COC(=O)C1=C(C)NC(C)=C(C(=O)OCCN(C)Cc2ccccc2)C1c1cccc([N+](=O)[O-])c1 (configuration not stated) [Nicardipine] | 8.39
3 | CN(C)CCC=C1c2ccccc2CSc2ccccc21 [Dosulepin] | 7.61
4 | CC(C)(O)c1ccccc1CCC(SCC1(CC(=O)O)CC1)c1cccc(C=Cc2ccc3ccc(Cl)cc3n2)c1 (configuration not stated) [Montelukast] | 13.4
5 | C#CC1(O)CCC2C3CCC4=CC(=O)CCC4C3CCC21CC (configuration not stated) [Norgestrel] | 10.2
6 | CC(C)(C)C(O)C(Oc1ccc(Cl)cc1)n1cncn1 (configuration not stated) [Triadimenol] | 9.93
7 | CON=C(Cc1cccnc1)c1ccc(Cl)cc1Cl [Pyrifenox] | 10.1
8 | COc1ccc2c3c1OC1C(=O)CCC4(O)C(C2)NCCC314 (configuration not stated) [Oxycodone-Nor] | 3.71
9 | CC(C)OC(=O)C(C)N(C(=O)c1ccccc1)c1ccc(F)c(Cl)c1 (configuration not stated) [Flamprop-isopropyl] | 10.8
10 | CCCCCn1cc(C(=O)CC(C)(C)C(C)(C)O)c2ccccc21 [HTMPIPO-4] | 11.6
11 | CCCN(CCC)c1c([N+](=O)[O-])cc(S(N)(=O)=O)cc1[N+](=O)[O-] [Oryzalin] | 10.3
12 | CNc1nc(C)c(C)c(OC(=O)N(C)C)n1 [Pirimicarb-desmethyl] | 5.89
13 | COC(=O)Nc1nc2ccc(C(=O)c3ccc(F)cc3)cc2[nH]1 [Flubendazole] | 8.65
14 | N#Cc1ccc2c(c1)N(CCCN1CCC(O)CC1)c1ccccc1S2 [Periciazine] | 7.45
15 | CN1CCCCC1Cn1cc(C(=O)C2C(C)(C)C2(C)C)c2ccccc21 (configuration not stated) [AB-005] | 8.81
16 | CCNC(C)C(O)c1ccc(O)c(O)c1 (configuration not stated) [Dioxethedrin] | 1.99
17 | CCCCCn1cc(C(=O)Cc2ccccc2Cl)c2ccccc21 [JWH-203] | 12.2
18 | COc1nc(C)nc(Cl)c1NC1=NCCN1 [Moxonidine] | 3.26
19 | CCN(CC)c1nc(C)cc(OP(=S)(OC)OC)n1 [Pirimiphos-methyl] | 11.3
20 | CCOP(=S)(OCC)Oc1ccc(=O)n(-c2ccccc2)n1 [Pyridaphenthion] | 9.79
21 | COP(=S)(OC)Oc1nc(Cl)c(Cl)cc1Cl [Chlorpyriphos-methyl] | 11.7
22 | CC1CC2C3CCC4=CC(=O)C=CC4(C)C3(Cl)C(O)CC2(C)C1(OC(=O)c1ccco1)C(=O)CCl (configuration not stated) [Mometasone fuorate] | 10.6

Row | Compound | LC retention time [min]
23 | COc1ccc2[nH]cc(CC(=O)O)c2c1 [MeOT (5-)] | 4.01
24 | CCNc1nc(NC(C)C)nc(SC)n1 [Ametryn] | 9.16
25 | CCOP(=S)(NC(C)CC)Oc1cc(C)ccc1[N+](=O)[O-] (configuration not stated) [Butamifos] | 11.2
26 | O=C(c1cccc2ccccc12)c1cn(CCCCCO)c2ccccc12 [JWH-018-M-N-5-OH-Pentyl] | 10
27 | CCCCCn1cc(C(=O)c2cccc3ccccc23)c2ccccc21 [JWH-018] | 12.4
28 | CCC(=O)OC1(C(=O)CCl)C(C)CC2C3CCC4=CC(=O)C=CC4(C)C3(F)C(O)CC21C (configuration not stated) [Clobetasol propionate] | 10.6
29 | O=C1NC(=O)C2CC=CCC12 (stereo not drawn) [Tetrahydrophthalimide (cis-) (1.2.3.6-)] | 4.37
30 | O=C(Nc1ccccc1)Nc1cnns1 [Thidiazuron] | 7.17
31 | C#CCNC(C)Cc1ccccc1 (configuration not stated) [Deprenyl-Nor] | 4.66
32 | Cc1c(N(C)CS(=O)(=O)O)c(=O)n(-c2ccccc2)n1C [Dipyron (Metamizol)] | 4.49
33 | CCN(CC)CCc1c[nH]c2ccccc12 [DET] | 4.34
34 | Cc1ccc(NC(=O)NC(C)(C)c2ccccc2)cc1 [Daimuron (Dymron)] | 9.68
35 | CCOP(=O)(Sc1ccccc1)Sc1ccccc1 [Edifenphos] | 10.8
36 | O=C(NCCN1CCOCC1)c1ccc(Cl)cc1 [Moclobemide] | 4.98
37 | c1cncc(C2CCCN2)c1 (configuration not stated) [Nicotine-Nor] | 2.44
38 | Cn1cc[nH]c1=S [Methimazole] | 2.61
39 | CNC(=O)Oc1ccccc1OC(C)C [Propoxur] | 6.94
40 | CNCC(O)c1cccc(NS(C)(=O)=O)c1 (configuration not stated) [Amidephrine] | 2.54
41 | CCC(CC)OC1C=C(C(=O)O)CC(N)C1NC(C)=O (configuration not stated) [Oseltamivir-carboxylate] | 4.73
42 | CC(=O)Nc1ccc(OC(=O)c2ccccc2OC(C)=O)cc1 [Benorilate] | 7.41
43 | COC(=O)C(NC(=O)c1nn(CC2CCCCC2)c2ccccc12)C(C)(C)C (configuration not stated) [MDMB-CHMINACA (MDMB-CHMICA)] | 12.9
44 | CCCNC(C)C(=O)Nc1ccccc1C (configuration not stated) [Prilocaine] | 4.69

Row | Compound | LC retention time [min]
45 | O=C1CN=C(c2ccccc2F)c2cc(Br)ccc2N1 [Flubromazepam] | 8.7
46 | CN1C(=O)CCS(=O)(=O)C1c1ccc(Cl)cc1 (configuration not stated) [Chlormezanone] | 5.94
47 | O=S(=O)(O)c1ccc2nc(-c3ccccc3)[nH]c2c1 [Phenylbenzimidazole sulfonic acid] | 4.63
48 | Cc1cccc(C)c1NC(=O)c1cc(S(N)(=O)=O)c(Cl)cc1O [Xipamide] | 7.36
49 | CCCC(C)(COC(N)=O)COC(N)=O [Meprobamate] | 5.94
50 | NC(N)=Nc1nc(CSCCC(N)=NS(N)(=O)=O)cs1 [Famotidine] | 3.24
51 | CCn1cc(C(=O)O)c(=O)c2cc3c(cc21)OCO3 [Oxolinic acid] | 6.03
52 | CN1C(=O)CN=C(c2ccccc2Cl)c2cc(Cl)ccc21 [Diclazepam] | 9.19
53 | Cc1c(Nc2ncccc2C(=O)O)cccc1C(F)(F)F [Flunixin] | 9.09
54 | CC1=C(C(=O)O)N2C(=O)C(NC(=O)C(N)c3ccccc3)C2SC1 (configuration not stated) [Cefalexin] | 4.08
55 | CCCCCn1cc(C(=O)c2ccc(CC)c3ccccc23)c2ccccc21 [JWH-210] | 13.2
56 | Cc1cccc(C)c1N(Cn1cccn1)C(=O)CS(=O)CC(=O)O (configuration not stated) [Metazachlor BH 479-9] | 4.94
57 | CN(C)C(=O)Nc1ccc(-n2nc(C(C)(C)C)oc2=O)c(Cl)c1 [Dimefuron] | 8.76
58 | CCNc1nc(NC(C)C)nc(OC)n1 [Atraton] | 7.81
59 | CN1CCC(OC(c2ccccc2)c2ccccc2)CC1 [Diphenylpyraline] | 7.23
60 | Cc1nnc(SCC2=C(C(=O)O)N3C(=O)C(NC(=O)Cn4cnnn4)C3SC2)s1 (configuration not stated) [Cefazolin] | 4.16
61 | CC(O)CCn1cc(C(=O)c2cccc3ccccc23)c2ccccc21 (configuration not stated) [JWH-073-M-3-OH-Butyl] | 9.91
62 | CNC(C)C(=O)c1ccc(Br)cc1 (configuration not stated) [Brefedrone] | 5.05
63 | CC1(c2ccc(Oc3ccccc3)cc2)OC(=O)N(Nc2ccccc2)C1=O (configuration not stated) [Famoxadone] | 11
64 | CC(C(=O)c1ccccc1)N(C)C (configuration not stated) [Cathinone-Dimethyl] | 3.64
65 | CN1CCC(=C2c3ccccc3CC(=O)c3sccc32)CC1 [Ketotifen] | 5.54
66 | N#Cc1ccc(CC(=NNC(=O)Nc2ccc(OC(F)(F)F)cc2)c2cccc(C(F)(F)F)c2)cc1 [Metaflumizone] | 12.1

Row | Compound | LC retention time [min]
67 | CN1C(=O)CC(=O)N(c2ccccc2)c2cc(Cl)ccc21 [Clobazam] | 8.08
68 | CNC1CCC(c2ccc(Cl)c(Cl)c2)c2ccccc21 (configuration not stated) [Sertraline] | 8.94
69 | COC(=O)c1ccccc1CS(=O)(=O)NC(=O)Nc1nc(OC)cc(OC)n1 [Bensulfuron-methyl] | 8.77
70 | CCNC(=O)NC(=O)C(C#N)=NOC [Cymoxanil] | 5.6
71 | CCOc1ccc(NC(=O)CC(C)O)cc1 (configuration not stated) [Bucetin] | 6.27
72 | COP(=S)(OC)SCn1nnc2ccccc2c1=O [Azinphos-methyl (Guthion)] | 8.89
73 | CSc1ccc(CC(C)N)cc1 (configuration not stated) [MTA (4-)] | 5.24
74 | CCOC(=O)C(O)(c1ccc(Cl)cc1)c1ccc(Cl)cc1 [Chlorobenzilate] | 11.7
75 | CC(N)Cc1ccc2occc2c1 (configuration not stated) [5-(2-aminopropyl)benzofuran (5-APB)] | 4.79
76 | Cc1ccc(NC=O)c(C)c1 [N-2-4-Dimethylphenylformamide (DMF. Metabolite Amitraz)] | 6.67
77 | COC(=O)C(NC(=O)c1nn(CCCCCF)c2ccccc12)C(C)(C)C (configuration not stated) [ADB-5F] | 11
78 | CCN1CCN(c2cc3c(cc2F)c(=O)c(C(=O)O)cn3C2CC2)CC1 [Enrofloxacin] | 4.64
79 | CSc1nc2cc(Oc3cccc(Cl)c3Cl)c(Cl)cc2[nH]1 [Triclabendazole] | 12
80 | C=CCN(CC=C)CCc1c[nH]c2ccc(OC)cc12 [MeO-DALT (5-)] | 4.89
81 | CCSc1cc(OC)c(CCN)cc1OC [2CT-2] | 5.88
82 | COCC(C)N(C(=O)C(=O)O)c1c(C)csc1C (configuration not stated) [Dimethenamide-OXA] | 6.36
83 | C#CC(C)(C)NC(=O)c1cc(Cl)cc(Cl)c1 [Propyzamide (Pronamide)] | 9.69
84 | CCOP(=O)(SC(C)CC)SC(C)CC (configuration not stated) [Cadusafos] | 11.5
85 | CNC(C)Cc1ccc(O)c(O)c1 (configuration not stated) [HHMA] | 2.59
86 | CCc1cc(OC)c(CC(C)N)cc1OC (configuration not stated) [DOET] | 6.88
87 | CC(=O)Nc1ccc(-c2ccc(C=NN3CC(=O)NC3=O)o2)cc1 [Acetaminodantrolene] | 5.67
